Assay results as given in patent US20230278972A1, “SUBSTITUTED HALOALKYL SULFONANILIDE HERBICIDES” (FMC Corporation, priority 2020, published 2023).

System: horseweed (Erigeron canadensis)
Assay: Test A1 postemergence, horseweed
Assay type: in vivo
Details: for Horseweed plant response rating: 31 g ai/ha, postemergence; for Plant response rating, Horseweed: Postemergence, 125 g ai/ha
Outline: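 Plants were grown in a loam soil/sand blend, with test chemicals formulated in a non-phytotoxic solvent mixture containing surfactant. Preemergence treatment (corn) was a directed soil spray at planting. Postemergence treatment was applied to plants 2 to 10 cm tall at the one- to two-leaf stage.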

[1] = 0 to 100 scale (0 no effect, 100 complete control)
[2] = 0 to 100 scale (0 no effect, 100 complete control), 10 days

Row | Structure (SMILES) | Horseweed plant response rating [1] | Plant response rating, Horseweed (0 to 100 scale) | Plant response rating, Horseweed [2]
1 | Cc1cc(C)c(C2=NOC3OCCCC23)cc1NS(=O)(=O)C(F)(F)F (centres unmarked) [Compound 372] | 0 | – | –
2 | CCC1CC(c2cc(NS(=O)(=O)C(F)(F)F)c(C)cc2C)=NO1 (centres unmarked) [Compound 375] | – | 50 | –
3 | CCC1CC(c2cc(N(COC(=O)C(C)(C)C)S(=O)(=O)C(F)(F)F)c(C)cc2C)=NO1 (centres unmarked) [Compound 376] | 0 | 0 | –
4 | Cc1ccc(C2=NOC3CCCC23)cc1NS(=O)(=O)C(F)(F)F (centres unmarked) [Compound 377] | 30 | 80 | –
5 | CCc1cc(C)c(N(COC(=O)C(C)(C)C)S(=O)(=O)C(F)(F)F)cc1C1=NOC2CCCC12 (centres unmarked) [Compound 378] | 0 | 90 | –
6 | Cc1c(NS(=O)(=O)C(F)(F)F)cc(C2=NOC3(CCCC3)C2)c(C)c1C [Compound 380] | 30 | – | 80
7 | Cc1c(C2=NOC3(CCCC3)C2)cc(N(COC(=O)C(C)(C)C)S(=O)(=O)C(F)(F)F)c(C)c1C [Compound 382] | 0 | – | 50
8 | Cc1cc(C)c(N(COC(=O)C(C)(C)C)S(=O)(=O)C(F)(F)F)cc1C1=NOC(C(C)C)C1 (centres unmarked) [Compound 383] | 0 | – | 30
9 | Cc1cc(C)c(N2CC3(CCCCC3)CC2=O)cc1NS(=O)(=O)C(F)(F)F [Compound 392] | 0 | – | 20
10 | Cc1cc(Cl)c(NS(=O)(=O)C(F)(F)F)cc1N1CCC2(CCCCC2)C1=O [Compound 393] | 0 | – | 30
11 | Cc1cc(Cl)c(NS(=O)(=O)C(F)(F)F)cc1N1CC2(CCCCC2)OC1=O [Compound 394] | 30 | – | 80
12 | COC1CCC2(CC1)CCN(c1cc(NS(=O)(=O)C(F)(F)F)c(C)cc1C)C2=O (centres unmarked) [Compound 398] | 20 | – | 50
13 | Cc1cc(C)c(N(S(=O)(=O)C(F)(F)F)S(=O)(=O)C(F)(F)F)cc1N1CCC2(CCC(C(F)(F)F)CC2)C1=O (centres unmarked) [Compound 399] | 0 | – | 50
14 | Cc1cc(C)c(N2CCC3(CCC(C(F)(F)F)CC3)C2=O)cc1NS(=O)(=O)C(F)(F)F (centres unmarked) [Compound 400] | 30 | – | 80
15 | Cc1cc(C)c(N2Cc3cccc(C)c3C2=O)cc1NS(=O)(=O)Cl [Compound 408] | 20 | – | 70
16 | COc1cccc2c1C(=O)N(c1cc(N(COC(=O)C(C)(C)C)S(=O)(=O)Cl)c(C)cc1C)C2 [Compound 413] | 40 | – | 90
17 | CCOc1cccc2c1C(=O)N(c1cc(N(COC(=O)C(C)(C)C)S(=O)(=O)Cl)c(C)cc1C)C2 [Compound 414] | 0 | – | 70
